Values quoted from earlier work as cited in patent US20240408074A1, “METHODS FOR THE TREATMENT AND PREVENTION OF NON-VIRAL TICK-BORNE DISEASES AND SYMPTOMS THEREOF OF” (60 DEGREES PHARMACEUTICALS LLC, priority 2023, published 2024).

How the values were obtained:
[1] = system: P. falciparum gametocytes; conditions: Example 5; single dose of primaquine combined with dihydroartemisinin/piperaquine, or dihydroartemisinin-piperaquine alone; cited from earlier work
P. falciparum [2] = conditions: 250 mg/day, cited from earlier work
Babesia parasites = conditions: 2 h; formation of large vacuoles; cited from earlier work
[3] = system: Trypanosome brucei blood stage forms; conditions: exposure for 90 minutes; cited from earlier work
Leptospira = conditions: exposure for as little as 30 min; cited from earlier work
B. microti = conditions: one patient; prior rituximab; tafenoquine at approved malaria prevention dose as monotherapy for six weeks; cited from earlier work
Leishmania major = conditions: intracellular amastigote forms; cited from earlier work
Plasmodium vivax = conditions: 400 mg/day for three days, cited from earlier work
Trypanosoma brucei = conditions: extracellular blood stage forms; cited from earlier work
Plasmodium falciparum = conditions: 600 mg loading dose then 200 mg; parasite load three days after last dose; all control subjects developed parasitemia; cited from earlier work
[4] = 600 mg over three days then 200 mg weekly for up to one year; reversible, not clinically significant; cited from earlier work
P. falciparum [5] = conditions: in vivo; cited from earlier work
B. rodhaini = conditions: cited from earlier work
[6] = system: free-living gram-negative bacteria and free-living gram-positive bacteria; conditions: gram-negative versus gram-positive; cited from earlier work
[7] = immunocompromised SCID mice, single dose of 20 mg/kg

COc1cc(NC(C)CCCN)c2ncccc2c1 (stereo not shown) [primaquine]
time until gametocytes non-infectious to mosquitoes at a level statistically lower than reference values [1]: two days post-dosing

CC[C@H]1OC(=O)[C@H](C)[C@@H](O[C@H]2C[C@@](C)(OC)[C@@H](O)[C@H](C)O2)[C@H](C)[C@@H](O[C@@H]2O[C@H](C)C[C@H](N(C)C)[C@H]2O)[C@](C)(O)C[C@@H](C)CN(C)[C@H](C)[C@@H](O)[C@]1(C)O [Azithromycin]
Protective Efficacy (%) Relative to Placebo, PF/Non-immune or Malaria-naïve (P. falciparum [2]; non-immune or malaria-naïve (Taylor)): 72% (Taylor) | Protective Efficacy (%) Relative to Placebo, Pf/Semi-Immune (P. falciparum [2]; semi-immune (Anderson)): 83% (Anderson)

OO [hydrogen peroxide]
concentration that kills Babesia parasites in vitro (Babesia parasites): 100 µM | concentration that kills blood stage forms [3]: approximately 140 microM | concentration that killed various serovars (Leptospira): < 180 µM

COc1cc(C)c2c(Oc3cccc(C(F)(F)F)c3)c(OC)cc(NC(C)CCCN)c2n1 (stereo not shown) [tafenoquine, N(4)-[2,6-Dimethoxy-4-methyl-5-[3-(trifluoromethyl)phenoxy]quinolin-8-yl]pentane-1,4-diamine]
outcome of treatment in the patient (B. microti): cured | potency of killing (Leishmania major): < 4 µM | day by which all patients cleared blood stage parasites (Plasmodium vivax; monotherapy): ≤ 8 days | relapses during the follow up period (Plasmodium vivax; patients for whom data was available): no relapses | potency of killing (Trypanosoma brucei): < 4 µM | subjects who developed blood stage parasitemia (Plasmodium falciparum): none | specific adverse events with increased risk [4]: gastrointestinal effects [mild to moderate] and cornea verticillata | activity against the blood stages of P. falciparum (P. falciparum [5]): quite effective | parasitemia (B. rodhaini; Balb/c (immunocompetent) mice, single dose of 20 mg/kg): cleared parasitemia | survival (B. rodhaini; Balb/c (immunocompetent) mice, single dose of 20 mg/kg, infection uniformly lethal in untreated animals): 100% | death (B. rodhaini; [7]): delayed not prevent | parasitemia and relapses (B. rodhaini; [7]): cleared initial parasitemia but did not prevent relapses | vacuole formation in B. rodhaini blood stages (B. rodhaini; mice, single dose of 20 mg/kg): induces the formation of large vacuoles | antioxidant enzymes in B. rodhaini (B. rodhaini; mice, single dose treatment): upregulated | clearance and cure of Babesia (B. rodhaini; one and three doses, immunocompromised mice and dogs): sufficient to clear and cure Babesia | activity against free-living bacteria [6]: much less active against free-living gram-negative bacteria than free-living gram-positive bacteria
